The values that follow come from ChEMBL document CHEMBL1201862, “PubChem BioAssay data set” (2004).

By IC50 is commonly meant the concentration at which inhibition is half-maximal.

Test [1] in a line: SAR analysis of small molecule activators of Apaf-1 using a LZ-Caspase-9/Caspase-3 Fluorescent Selectivity assay - Set 2. Type of test: functional. As to conditions: read-out: EC50_Mean.
Test [2] concerns the target T1, Apoptotic protease-activating factor 1 (Homo sapiens, UniProt O14727).
T1 sequence (O14727 whole entry): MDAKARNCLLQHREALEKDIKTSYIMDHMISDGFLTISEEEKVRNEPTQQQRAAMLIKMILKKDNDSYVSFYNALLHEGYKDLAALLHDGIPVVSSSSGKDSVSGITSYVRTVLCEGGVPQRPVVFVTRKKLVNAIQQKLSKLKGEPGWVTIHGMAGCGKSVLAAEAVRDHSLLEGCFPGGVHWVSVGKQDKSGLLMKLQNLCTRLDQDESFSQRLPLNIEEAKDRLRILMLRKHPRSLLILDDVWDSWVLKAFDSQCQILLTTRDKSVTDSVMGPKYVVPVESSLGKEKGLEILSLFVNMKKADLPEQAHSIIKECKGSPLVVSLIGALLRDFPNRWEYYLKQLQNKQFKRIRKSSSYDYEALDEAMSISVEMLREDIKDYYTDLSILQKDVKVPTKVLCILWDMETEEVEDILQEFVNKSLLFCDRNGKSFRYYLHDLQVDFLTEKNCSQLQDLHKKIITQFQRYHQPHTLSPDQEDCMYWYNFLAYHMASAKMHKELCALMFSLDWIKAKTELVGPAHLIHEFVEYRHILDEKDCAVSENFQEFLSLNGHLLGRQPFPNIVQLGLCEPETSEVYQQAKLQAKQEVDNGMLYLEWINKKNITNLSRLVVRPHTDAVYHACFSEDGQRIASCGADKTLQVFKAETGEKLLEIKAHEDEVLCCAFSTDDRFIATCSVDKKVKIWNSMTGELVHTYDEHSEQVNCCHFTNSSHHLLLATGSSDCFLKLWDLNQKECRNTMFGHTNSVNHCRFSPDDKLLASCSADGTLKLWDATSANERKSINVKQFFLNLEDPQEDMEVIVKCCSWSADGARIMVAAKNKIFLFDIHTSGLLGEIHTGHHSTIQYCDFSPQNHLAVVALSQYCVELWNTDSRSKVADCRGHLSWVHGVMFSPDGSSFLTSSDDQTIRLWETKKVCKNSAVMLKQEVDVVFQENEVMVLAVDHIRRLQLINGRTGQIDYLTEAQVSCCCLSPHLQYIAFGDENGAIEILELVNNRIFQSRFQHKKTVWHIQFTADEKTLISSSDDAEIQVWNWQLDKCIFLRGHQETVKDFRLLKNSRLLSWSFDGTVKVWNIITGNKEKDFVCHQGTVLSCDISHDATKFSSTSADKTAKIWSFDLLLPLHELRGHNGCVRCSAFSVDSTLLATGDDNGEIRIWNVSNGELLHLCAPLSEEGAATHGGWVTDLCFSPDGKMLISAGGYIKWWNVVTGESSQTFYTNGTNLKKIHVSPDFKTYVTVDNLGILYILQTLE
Put plainly: SAR analysis of small molecule Activators of Apaf-1 in a Fluorescent assay - set 2. The conditions noted are these: read-out: EC50_Mean. Type of test: functional.

Test [3] has as its target T2, High affinity choline transporter 1 (Homo sapiens, UniProt Q9GZV3).
T2 sequence (Q9GZV3 whole entry): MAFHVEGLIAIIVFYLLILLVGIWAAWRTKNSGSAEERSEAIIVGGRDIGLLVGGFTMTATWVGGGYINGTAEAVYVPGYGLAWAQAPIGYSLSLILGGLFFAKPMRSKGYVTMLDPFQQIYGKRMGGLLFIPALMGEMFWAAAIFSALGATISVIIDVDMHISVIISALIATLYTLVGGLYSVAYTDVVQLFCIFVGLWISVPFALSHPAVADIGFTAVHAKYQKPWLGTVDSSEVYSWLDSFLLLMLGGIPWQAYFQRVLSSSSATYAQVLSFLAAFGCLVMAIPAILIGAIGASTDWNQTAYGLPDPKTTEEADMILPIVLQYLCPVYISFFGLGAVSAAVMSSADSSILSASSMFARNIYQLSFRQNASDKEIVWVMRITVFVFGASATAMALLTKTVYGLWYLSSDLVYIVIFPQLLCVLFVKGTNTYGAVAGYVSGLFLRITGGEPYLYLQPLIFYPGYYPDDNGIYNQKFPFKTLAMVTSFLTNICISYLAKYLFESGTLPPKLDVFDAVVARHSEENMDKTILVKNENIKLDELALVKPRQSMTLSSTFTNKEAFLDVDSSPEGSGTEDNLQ
In words: human choline transporter blockers, potency – cell-based, 10-point CRC, membrane potential dye, dose response (AID 588401).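 Note: membrane potential dye fluorescence of choline-evoked depolarization via CHT.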 Type of test: functional.

Test [4] deals with T2, High affinity choline transporter 1. Put plainly: human choline transporter blockers, potency – cell-based, 5-point CRC, membrane potential dye, dose response (AID 504840). The test is classed as functional.
In test [5] the target is T3, Nuclear receptor subfamily 0 group B member 1 (Homo sapiens, UniProt P51843).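 Note: HEK293T cells transfected with SF-1 and DAX-1 plus StAR promoter luciferase reporter.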
T3 sequence (P51843 whole entry): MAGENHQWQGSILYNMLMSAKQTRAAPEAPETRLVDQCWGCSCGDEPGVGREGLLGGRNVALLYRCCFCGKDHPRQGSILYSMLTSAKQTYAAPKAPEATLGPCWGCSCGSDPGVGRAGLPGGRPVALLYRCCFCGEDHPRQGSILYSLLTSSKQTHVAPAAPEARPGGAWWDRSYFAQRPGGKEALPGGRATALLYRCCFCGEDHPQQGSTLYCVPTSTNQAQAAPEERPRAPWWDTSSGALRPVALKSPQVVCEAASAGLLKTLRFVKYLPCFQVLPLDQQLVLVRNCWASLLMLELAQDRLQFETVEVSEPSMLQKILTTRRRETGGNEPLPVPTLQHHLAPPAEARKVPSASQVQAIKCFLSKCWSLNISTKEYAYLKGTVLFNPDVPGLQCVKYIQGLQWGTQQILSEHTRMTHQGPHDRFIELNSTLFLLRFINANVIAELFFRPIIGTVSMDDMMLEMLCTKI
The test is classed as functional, cell-based.

Test [6] is described as follows: cells. The test is classed as functional, cell-based.
For test [7], the target named is T4, Neuropeptides B/W receptor type 1 (Homo sapiens, UniProt P48145).
T4 sequence (P48145 whole entry): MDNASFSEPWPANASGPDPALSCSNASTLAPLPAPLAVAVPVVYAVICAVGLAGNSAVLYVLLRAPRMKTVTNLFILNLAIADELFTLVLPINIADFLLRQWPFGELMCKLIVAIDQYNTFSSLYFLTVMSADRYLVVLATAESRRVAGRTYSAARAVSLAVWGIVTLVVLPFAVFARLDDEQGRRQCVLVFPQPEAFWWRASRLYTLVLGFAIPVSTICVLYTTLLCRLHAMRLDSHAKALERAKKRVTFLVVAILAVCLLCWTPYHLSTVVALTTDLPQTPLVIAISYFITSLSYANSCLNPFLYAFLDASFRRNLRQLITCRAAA
In words: human NPBW1 receptor blockade, IC50 – cell-based, fluorescence, dose response, set 6, late-stage follow-up (AID 588583). The test is classed as functional.

Test [8] deals with Melanin-concentrating hormone receptor 1 (Homo sapiens, UniProt Q99705). In words: Late-stage fluorescence-based counterscreen for antagonists of the G-protein coupled receptor 7 (GPR7): cell-based dose response assay to identify antagonists of the melanin-concentrating hormone receptor 1 (MCHR1) Set 6. The test is classed as functional.

Activity calls are given as the source filed them. A value given as a limit tells only on which side of the number the result lay.

Melanin-concentrating hormone receptor 1, sequence (Q99705 whole entry): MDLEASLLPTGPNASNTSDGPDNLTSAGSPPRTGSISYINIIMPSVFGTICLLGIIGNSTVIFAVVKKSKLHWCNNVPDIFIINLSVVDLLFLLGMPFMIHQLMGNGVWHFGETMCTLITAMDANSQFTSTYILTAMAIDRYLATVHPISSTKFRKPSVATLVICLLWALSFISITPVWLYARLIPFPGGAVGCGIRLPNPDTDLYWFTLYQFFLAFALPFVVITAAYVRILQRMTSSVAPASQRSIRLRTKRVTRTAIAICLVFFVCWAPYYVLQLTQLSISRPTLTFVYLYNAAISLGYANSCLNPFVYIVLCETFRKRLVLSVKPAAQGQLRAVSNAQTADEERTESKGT

In the case of `CC(CN1CCOCC1)C(=O)O` (stereo not drawn), the EC50 in test [1] and in test [2] was > 100 µM (inactive) each time.

As to `O=C(Nc1c(C(=O)N2CCC(N3CCCCC3)CC2)oc2ccccc12)c1ccc(F)cc1`, the IC50 is 1.63 µM (active) in test [3], 0.91 µM (active) in test [4], > 67.5 µM (inactive) in test [5] and > 67.5 µM (inactive) in test [6].

Regarding `N#CC(c1ccc([N+](=O)[O-])cc1)c1c(Cl)cnn(Cc2cccc3ccccc23)c1=O` (stereo not drawn), the IC50 in test [7] and in test [8] was 0.303 µM (active) each time.
